Here are results for 1 compound from patent US8680145B1, “Compositions and methods for treatment of fear of medical procedures” (priority 2013, dated 2014).

Assay [1] concerns subject with dental phobia. The experiment in a line: Replacement of an aged metal filling in the same subject after proglumide (Example 2). To be noted: capsule 200 mg proglumide 90 minutes prior; local anesthetic given by dentist. Type of assay: in vivo, human. On the procedure:
Proglumide was obtained from commercial suppliers and/or pharmacies, and loaded into capsules. The same subject as in Example 1 returned to the dentist five days after the dental checkup of Example 1 in order to replace an aged metal filling. Again, proglumide was administered to the subject in advance of the appointment. […] The dentist administered a local anesthetic (e.g., lidocaine) painkiller as part of the procedure for replacing the filling. The residual discomfort following the procedure, including after the numbness wore off, was mild.

A further assay relates to rats. As to conditions: opiate-naïve and morphine-tolerant rats (Watkins 1985); cited from earlier work.
The conditions of assay [2]: cited from earlier work.
The subject of the next assay is human patients. To be noted: cited from earlier work.
The subject of assay [3] is subject with dental phobia. The assay can be described thus: Routine dental checkup (cleaning and examination) of a subject with dental phobia after proglumide (Example 1). In kind it is in vivo, human. The text has this: Proglumide was obtained from commercial suppliers and/or pharmacies, and loaded into capsules. A subject with dental phobia, who had not been to a dentist in many years, agreed to undergo a routine dental checkup visit (cleaning and examination), and to take proglumide prior to the dental visit. […] Furthermore, the subject was willing to return for a follow-up visit within one week in order to replace an aged filling, a procedure that was not deemed urgent and easily could have been delayed.

The conditions of assay [4]: chronic administration (Kellstein 1990); cited from earlier work.

On to `CCCN(CCC)C(=O)C(CCC(=O)O)NC(=O)c1ccccc1` (stereo not shown) [proglumide, Proglumide], for which the “Residual discomfort following the procedure, including after the numbness wore off” value in assay [1] is “mild”. The Morphine analgesia result in the assay on rats is “potentiates”. Further, in assay [2] (Benedetti 1995), the Placebo analgesia entry was “enhance”. Moreover, in assay [2] (Benedetti 2006), the Nocebo hyperalgesia entry is given as “block”. Moreover, in the assay with human patients (cancer pain management (Bernstein 1998) and post-operative patients (Lehmann 1989)), the “Augmentation of morphine analgesia, treatment vs control groups” value is “no difference”. Further, in the assay with human patients (human patients with chronic pain (McCleane 1998)), the “Analgesic efficacy of morphine” value was “enhances”. For the same compound, the Total discomfort entry in assay [3] (capsule 100 mg proglumide ninety minutes prior to dental appointment) is listed as “low enough that the subject would be willing to return to a regular dental checkup schedule”. In addition, the “Subject-reported pain during calculus removal” value in assay [3] (capsule 100 mg proglumide ninety minutes prior to dental appointment, relative to previous dental visits without proglumide) is “substantially reduced”. Also, the “Post-checkup pain (tender gums, sensitivity while chewing)” value in assay [3] (capsule 100 mg proglumide ninety minutes prior, relative to after previous dental checkups) is “significantly reduced”. In addition, the “Efficacy as a long-term adjunct to opiate treatment for chronic pain” value in assay [4] is on record as “ineffective”.
